Legend:
[1] = system: Hh signaling (Gli1, Ptch1 mRNA) in NIH3T3-E1 cells; assay: Ligand-induced Hh target gene expression (Q-RT-PCR) in NIH3T3 cells treated with CAPAN-1 conditioned medium; type: cell-based
Experimental: Growth medium in confluent […] tissue culture plates of CAPAN-1 cells was replaced with 10 mL of fresh growth medium and cells incubated for a total of 7 days. Conditioned medium (CM) containing Shh and Ihh was collected and spun down to remove any detached cells and debris, aliquoted, and stored frozen at −80 °C (21).
(§1) Total RNA was extracted with the RNeasy Plus Mini Kit from Qiagen (Hilden, Germany) according to the manufacturer’s instructions. One microgram of RNA was reverse-transcribed using an iScript Reverse Transcription Supermix from Bio-Rad Laboratories (Hercules, CA, USA) to make single-stranded cDNA. The cDNAs were then mixed with Qi SYBR Green Supermix (Bio-Rad) for quantitative RT-PCR assay using a Bio-Rad I-cycler IQ quantitative thermocycler. All PCR samples were prepared in triplicate wells in a 96-well plate. After 40 cycles of PCR, melt curves were examined in order to ensure primer specificity. Fold changes in gene expression were calculated using the ΔΔCt method. Primers used for mouse were as follows: Oaz1 (5′-CCACTGCTTCGCCAGAGAG-3′) and (5′-CCCGGACCCAGGTTACTA-3′), Gli1 (5′- […]-3′ and 5′- GCT GATCCAGCCTAAGGTTCTC-3′), Ptch1 (5′-CCATCGGCGACAAGAACC-3′ and 5′-[…]-3′), Thbs1 (5′-[…]-3′ and 5′-CGGGGATCAGGTTGGCATT-3′), Cryab (5′-[…]-3′ and 5′-[…]-3′), Egr2 (5′-[…]-3′ and 5′-[…]-3′), CTGF (5′-GGGCCTCTTCTGCGATTTC-3′ and 5′-[…]-3′).
Statistical analyses were performed using the StatView 5 program (SAS Institute, Cary, NC, USA). All p values were calculated using ANOVA and Fisher’s projected least significant difference (PLSD) significance test. A value of p < 0.05 was considered significant. The IC 50 dose-response curves shown in Figure 4b and Figure 7a–c were modeled using a five-parameter logistic model. This model allows for asymmetric curves and automatically estimates the mean maximum and minimum response. Based on this model, IC 50 values were estimated corresponding to the dose halfway between min and max response. Models of dose versus response and dose versus log response were also evaluated (see Supplementary Materials). The R square statistic was computed as a measure of model fit.
Figure 4 Inhibition of ligand-induced Hedgehog and TGFβ signaling in mouse fibroblast cells. NIH3T3 cells were pretreated for 2 h with Oxy210 or various inhibitors as indicated in DMEM containing 5% FBS. […] After 72 h, RNA was extracted and analyzed by Q-RT-PCR for the expression of Hh target genes Gli1 and Ptch1 and normalized to Oaz1 expression (a,b). […] After 48 h, RNA was extracted and analyzed by Q-RT-PCR for the expression of TGFβ target genes as indicated and normalized to Oaz1 expression. […] Luciferase activity was measured and normalized to the Renilla luciferase activity. […]

[2] = system: TGFβ signaling in NIH3T3-E1 cells; assay: TGFβ target gene expression (Q-RT-PCR) in NIH3T3 cells; type: cell-based, mouse; conditions: NIH3T3 cells, TGFβ 20 ng/mL
Experimental: as §1
Figure 4 Inhibition of ligand-induced Hedgehog and TGFβ signaling in mouse fibroblast cells. NIH3T3 cells were pretreated for 2 h with Oxy210 or various inhibitors as indicated in DMEM containing 5% FBS. Next, cells were treated with CAPAN-1 conditioned medium (CM) in the absence or presence of oxysterols or inhibitors. After 72 h, RNA was extracted and analyzed by Q-RT-PCR for the expression of Hh target genes Gli1 and Ptch1 and normalized to Oaz1 expression (a,b). (c,e) NIH3T3 cells were treated in DMEM containing 0.1% BCS overnight and then pretreated for 2 h with the inhibitors as indicated in DMEM containing 0.1%BCS. The cells were then treated with TGFβ (20ng/mL) in the absence or presence of the compounds. After 48 h, RNA was extracted and analyzed by Q-RT-PCR for the expression of TGFβ target genes as indicated and normalized to Oaz1 expression. (d) NIH3T3 cells cultured in 24 well-plates were transfected with a Smad response element reporter (SBE-Luciferase) plasmid and a pTK-Renilla-Luciferase plasmid. 6 hrs after transfection, cells were treated with the test agents as indicated for 48 hrs. Luciferase activity was measured and normalized to the Renilla luciferase activity. Data from a representative experiment are reported as the mean of triplicate determinations ± SD (** p < 0.01 vs. CM (a,b) or TGFβ (c,d and e) treated cells; ## p < 0.01 vs. control).

[3] = system: Gli1 transcriptional activity; assay: Gli responsive luciferase reporter in NIH3T3-E1 cells over expressing Gli1; type: cell-based, mouse; conditions: 10 μM, 72 hrs
Experimental: NIH3T3-E1 cells cultured in 24 well-plates at 90% confluence were transiently transfected with 0.1 μg of Smad response-element reporter (SBE-Luciferase) plasmid (Qiagen), or with 0.1 μg of Gli response-element reporter (pGL3b-8xGli-Luciferase) plasmid, and 10 ng of pSV40-Renilla-Luciferase plasmid (Promega, Madison, WI, USA) with or without co-transfection with 10ng of Gli1 overexpression vector, pSRα-Gli1 using a Lipofectamine LTX Plus transfection reagent, as previously described. Sufu-/- cells cultured in 24 well-plates at 90% confluence were transiently transfected with 0.1μg of pGL3b-8xGli-Luciferase plasmid, and 10 ng of pSV40-Renilla-Luciferase plasmid. 6 hrs after transfection, cells were treated with test agents for 72 h. […] Then the firefly and Renilla luciferase activities were measured using a dual luciferase kit (Promega) and a GloMax-96 Microplate Luminometer (Promega) or a plate reader-SpectraMax iD3 (Molecular Devices, San Jose, CA, USA). […]
Figure 5 Oxy210 acts downstream of Smo. […] After 72 h, RNA was extracted and analyzed by Q-RT-PCR for the expression of Hh target genes Gli1 and Hip, normalized to Oaz1 expression. […] Luciferase activity was measured and normalized to the Renilla luciferase activity. […]

C[C@]12CC[C@H]3[C@@H](CC=C4C[C@@H](O)CC[C@@]43C)[C@@H]1CC[C@@H]2[C@](C)(O)CCc1cccnc1 [Oxy210, (3S,8S,9S,10R,13S,14S,17S)-17-((R)-2-hydroxy-4-(pyridin-3-yl)butan-2-yl)-10,13-dimethyl-2,3,4,7,8,9,10,11,12,13,14,15,16,17-tetradecahydro-1H-cyclopenta[a]phenanthren-3-ol]
IC10 Estimate, dataset 1 - Fig 4b ([1]; Gli1 mRNA, original scale Y, logistic curve model): 330 nM
IC90 ([1]; Mus musculus, Gli1 mRNA, original scale Y, logistic curve model, read-out: IC90 Estimate, dataset 1 - Fig 4b): 5500 nM
mRNA expression of ligand-induced Hh target genes Gli1 and Ptch1 ([1]; NIH3T3-E1 cells, CAPAN-1 CM, 72 h): robustly inhibited
IC50 ([1]; NIH3T3-E1 cells, CAPAN-1 CM, 72 h, Gli1 mRNA, five-parameter logistic model, ± SE, read-out: IC50 for inhibition of Gli1 expression): 1830 ± 210 nM
expression of TGFβ target genes CTGF, Egr2, Thbs1 and Cryab ([2]; 48 h): strongly inhibited
expression of CTGF induced by TGFβ ([2]; 48 h (Figure 4e)): robustly inhibited
transcriptional activity of Gli responsive luciferase reporter trans-activated by exogenous Gli1 [3]: significantly inhibited

From publication PMC6829886, “Inhibition of Non-Small Cell Lung Cancer Cells by Oxy210, an Oxysterol-Derivative that Antagonizes TGFβ and Hedgehog Signaling” (Cells, 2019)
